Source: patent US20250092345A1, “INTER ORGAN PLATFORM FOR MICROPHYSIOLOGICAL SYSTEM ON A CHIP” (THE TRUSTEES OF COLUMBIA UNIVERSITY IN THE CITY OF NEW YORK, priority 2020, published 2025)

Legend:
[1] = system: non-metastatic and metastatic GFP-luciferase ES cell lines (RD-ES, SK-N-MC); experiment: Luminescence viability of GFP-luciferase ES cell monolayers; type: cell-based, human; conditions: 12 μM over 72 hours; both the non-metastatic and metastatic cell lines
Experimental: (§1) MTT viability assay was used to determine drug toxicity, with luminescence generated by viable cells measured at the endpoint (10^4 cells per well, mean±s.e.m., n=3). […] In order to determine cancer cell viability, cells were lysed and treated with luciferin using a Bright-Glo™ assay, with subsequent luminescence measured (10^4 cells per well, mean±s.e.m., n=3).
(§2) Cell viability was analyzed using a previously established protocol. Cancer cell viability was measured for GFP-Luciferase labelled cancer cells using ONE-Glo luciferase substrate that was prepared according to manufacturer's protocol (Promega). Samples were collected following 3, 7, and 21 days cycles of linsitinib treatment. Where noted, longitudinal cell viability was also assessed using luminescence, though at the cost of signal strength. Briefly, in vivo grade VivoGlo™ Luciferin (Promega) was made at a 200× stock concentration (30 mg/ml) in water, added to sample culture media at a 1:200 dilution, and scanned using a spectrophotometer (Biotek). Some of the IC50 values were determined using cell viability data generated using an MTT assay (RealTime-Glo™ MT Cell Viability Assay, Promega) that were analyzed according to manufacturer's protocol.

[2] = system: engineered cardiac tissues; experiment: Cardiac tissue in the integrated platform with microfluidic perfusion, linsitinib; type: cell-based, human; conditions: after linsitinib exposure
Experimental: (§3) The TE-ES and cardiac tissues were then cultured in the integrated platform with perfusion of mixed media. Linsitinib was introduced into the reservoir and delivered to tissues via circulation of perfusate and diffusion into the tissues.
Human iPS cell-derived cardiomyocytes at day 13 of differentiation were combined with normal human dermal fibroblasts (NHDF; Lonza) at a ratio of 75% human iPS-derived cardiomyocytes and 25% NHDF, for a total of 1 million cells per tissue. The hydrogel was formed by mixing 33 mg/mL of human fibrinogen (Sigma-Aldrich) with 25 U/mL of human thrombin (Sigma-Aldrich), at an 84:16 ratio. […]
To measure the cardiac contractility online, we took contractility videos of the tissues that were analyzed using the native MATLAB code we previously developed. Tissue contractility was measured by tracking the change in tissue area as a function of time. […] Absolute differences in cell area from the baseline frame were then calculated to create a time course of cell area changes over time. The resulting time courses were analyzed using a native MATLAB (MATHWorks) automated peak finding algorithm to determine locations of maximum cell contractions in the time profiles. Beat period lengths were determined from the length of time between the pairs of local maxima, and the beat frequencies were determined by inverting beat periods. […]

[3] = cited from earlier work
[4] = system: non-metastatic and metastatic ES cell lines (RD-ES, SK-N-MC); experiment: MTT viability assay in ES cell monolayers; type: cell-based, human; conditions: 0-100 μM over 72 hours
Experimental: as §1, §2

[5] = system: non-metastatic TE-ES bone tumor tissues; experiment: Non-metastatic ES bone tumor in the integrated platform with microfluidic perfusion, linsitinib; type: cell-based, human; conditions: 12 μM
Experimental: as §3
ES cells, when co-cultured with mesenchymal stem cells and exposed to physiological shear-stress in a perfusion bioreactor, can become resistant to IGF-1R inhibitors. Therefore, we evaluated the role of flow derived shear stress in this newly found resistance of non-metastatic TE-ES bone tumor tissues to the IGF-1R inhibitor linsitinib. Linsitinib was introduced into the platform (12 µM, 3 days), either via circulation or directly into the TE-ES tissue chamber (FIG. 34G), to distinguish effects of flow-derived stimuli from drug diffusion into the tissues.
Upon maturation, bone tumors in the platform were exposed to a 1:1 mixture of the bone tumor and cardiac tissue media, supplemented by 12 μM linsitinib in the treated groups. […]
as §2, with “Samples were collected following 3, 7, and 21 days cycles of linsitinib treatment.” left out, “Briefly, in vivo grade VivoGlo™ Luciferin (Promega) was made at a 200× stock concentration (30 mg/ml) in water, added to sample culture media at a 1:200 dilution, and scanned using a spectrophotometer (Biotek).” left out
In order to confirm linsitinib mechanism of action in ES cells, both RD-ES and SK-N-MC monolayers were treated with 12 μM linsitinib for 6 hours, lysed, measured for protein quantity using a Pierce™ BCA Protein Assay Kit (ThermoFisher), and loaded equally onto a Human Phospho-IGF1R ELISA (RayBiotech) to semi-quantitatively determine phosphorylated levels of the IGF-1 receptor, according to manufacturer's instructions. Osteocalcin (OCN), osteopontin (OPN), and lactic acid dehydrogenase (LDH) secreted levels were all measured using a similar approach. […]

IGF-1 receptor = molecular target: T1, IGF-1 receptor (Homo sapiens, UniProt P08069); experiment: Phospho-IGF1R ELISA in ES cell monolayers; type: cell-based; conditions: 12 μM for 6 hours
T1 construct: endogenous in cells; host or cells: RD-ES (ATCC HTB-166) and SK-N-MC (ATCC HTB-10) Ewing sarcoma cell lines
T1 sequence (P08069 31-1367): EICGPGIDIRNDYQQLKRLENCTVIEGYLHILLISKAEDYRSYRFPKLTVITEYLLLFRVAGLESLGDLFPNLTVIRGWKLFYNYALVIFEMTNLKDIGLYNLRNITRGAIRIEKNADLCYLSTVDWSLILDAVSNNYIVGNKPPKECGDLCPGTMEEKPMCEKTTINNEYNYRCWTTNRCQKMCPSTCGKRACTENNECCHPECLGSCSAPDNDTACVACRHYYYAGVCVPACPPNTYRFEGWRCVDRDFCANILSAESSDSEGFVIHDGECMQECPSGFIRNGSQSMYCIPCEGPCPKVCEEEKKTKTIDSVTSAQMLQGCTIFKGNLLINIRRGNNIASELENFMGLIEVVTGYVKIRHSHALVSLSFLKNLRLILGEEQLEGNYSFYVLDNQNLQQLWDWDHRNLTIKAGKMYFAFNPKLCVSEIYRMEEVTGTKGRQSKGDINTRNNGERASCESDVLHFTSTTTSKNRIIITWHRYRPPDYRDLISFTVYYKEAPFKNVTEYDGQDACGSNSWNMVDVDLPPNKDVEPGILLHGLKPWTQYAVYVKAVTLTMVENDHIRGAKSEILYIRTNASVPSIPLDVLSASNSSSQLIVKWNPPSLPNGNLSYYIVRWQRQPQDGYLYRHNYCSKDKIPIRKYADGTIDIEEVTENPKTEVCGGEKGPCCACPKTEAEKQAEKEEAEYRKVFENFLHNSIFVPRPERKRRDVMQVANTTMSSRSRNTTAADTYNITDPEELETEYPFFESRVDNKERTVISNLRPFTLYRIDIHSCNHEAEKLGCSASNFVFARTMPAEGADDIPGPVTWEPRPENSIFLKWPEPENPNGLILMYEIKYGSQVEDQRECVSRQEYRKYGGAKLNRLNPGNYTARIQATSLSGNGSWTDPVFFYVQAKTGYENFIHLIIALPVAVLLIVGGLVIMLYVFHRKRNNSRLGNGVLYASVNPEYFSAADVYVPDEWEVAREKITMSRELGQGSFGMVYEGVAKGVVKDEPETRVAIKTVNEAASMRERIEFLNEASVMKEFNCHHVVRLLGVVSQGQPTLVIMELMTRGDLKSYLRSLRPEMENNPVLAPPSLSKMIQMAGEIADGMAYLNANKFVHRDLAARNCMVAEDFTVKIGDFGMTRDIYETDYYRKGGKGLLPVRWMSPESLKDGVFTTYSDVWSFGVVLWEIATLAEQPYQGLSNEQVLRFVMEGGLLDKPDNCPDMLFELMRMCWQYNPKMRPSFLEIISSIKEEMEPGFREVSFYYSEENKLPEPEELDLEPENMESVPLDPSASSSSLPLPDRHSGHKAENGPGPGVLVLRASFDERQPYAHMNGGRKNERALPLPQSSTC

inotropic response to subsequent isoproterenol [2]: expected inotropic response | levels of phosphorylated IGF-1R (IGF-1 receptor): significant decreases
Compound: C[C@]1(O)C[C@@H](c2nc(-c3ccc4ccc(-c5ccccc5)nc4c3)c3c(N)nccn32)C1 [linsitinib]
drug efficacy (luminescence viability) [1]: significant drug efficacy | half-life [3]: approximately 5 hours | IC50 (MTT viability assay) [4]: two orders of magnitude lower than the effective plasma concentration observed in patients | response to the drug (luminescence) ([5]; 3 days, directly into the tissue chamber (immediate exposure)): fast response | drug response (luminescence) ([5]; 3 days, perfused integrated platform): insignificant drug response | secretion of LDH, vehicle vs linsitinib treated ([5]; 72 hours, perfused integrated platform): no significant difference
